# Experimental data taken from patent US20080027143A1, “CHEMICAL FORMULATION FOR AN INSECTICIDE” (priority 2006, published 2008).
# How the values were obtained:
# Assay type in all cases: physicochemical
# [1] = Viscosity of solvent; conditions: at 25 deg. C.
# Procedure: Referring again to Table 5, release rates of 8.0 wt %/wt % Transfluthrin in solvent are strongly correlated to viscosity of solvent. A solvent viscosity of less than or substantially equal to about 4 centistokes (cSt) at 25 Celsius is preferred as release rates stay above 5 mg/hr. Release rates lower than 5 mg/hr require much higher concentration of insecticide (higher insecticidal concentrations lead to thickening of the formula which may become unacceptable to delivery via piezoelectric delivery systems). A solvent viscosity of less than or substantially equal to about 3 cSt is more preferred as this enables the insecticidal concentration(s) to be kept below 10%.
# [2] = Release rate and evaporation loss from piezoelectric diffusion device (Table 5); conditions: for Evaporation Loss: OFF switch position, average of 30 hours; for Evaporation Loss / Release Rate in High Setting: 3 repetitions; for Release Rate in High Setting: ON, high switch setting, average of 13 hours
# Excerpt: A highly permeable wick is used in the diffusion device 20 to ensure easy and effective transfer of the liquid from the tip of the wick to the orifice plate 110. In addition, the plug and wick holder 72 that is fitted to the reservoir 50 includes two small orifices to enable equilibration of pressure between the headspace in the reservoir and the surrounding atmosphere. These design factors lead to slow evaporation of the solvent regardless of where the device 20 is switched on or off. Solvents with high volatility tend to evaporate more rapidly leading to concentration of the insecticide in the reservoir 50. This increases the viscosity of the formula and slows down the overall release rates, leading to a negative impact on product performance. […] [table]
# [3] = Release rates over 14 days for solvents with different boiling point ranges (Table 7)
# Excerpt: The effect of solvents with different boiling point ranges on release rates were studied and the results are show in the following Table 7: [table]
# [4] = Storage stability of insecticide in solvent
# Excerpt: Stability data determined using analytical tools are given below:
# [5] = With 8.0 wt %/wt % Transfluthrin in Solvent
Structure (SMILES),Viscosity of Solvent [1] [cSt],"Evaporation Loss as Percent of Release Rate [2, 5] [%]","Evaporation Loss [2, 5] [mg/h]","Release Rate in High Setting [2, 5] [mg/h]",Evaporation Loss as Percent of Release Rate ([2]; With Pure Solvent) [%],Evaporation Loss ([2]; With Pure Solvent) [mg/h],Release Rate in High Setting ([2]; With Pure Solvent) [mg/h],Residual Liquid ([3]; after the 14 days),"Average Release Rate during 1–5 days ([3]; high setting, average period of 7.1 hours per day, days 1–5) [mg/h]","Average Release Rate during 6–10 days ([3]; high setting, average period of 7.1 hours per day, days 6–10) [mg/h]","Average Release Rate during 11–14 days ([3]; high setting, average period of 7.1 hours per day, days 11–14) [mg/h]",Stability in hydrocarbon solvents (conclusion) [4]
CCCOCC(C)O (stereo not shown) [DOWANOL ® PnP],2.7,73.1,16.05,22.0,38.4,9.73,25.3,Zero,19.1,18.0,10.0,–
C/C=C/C1C(C(=O)OCc2c(F)c(F)c(COC)c(F)c2F)C1(C)C (stereo not shown) [Metofluthrin],–,–,–,–,–,–,–,–,–,–,–,stable
CC1(C)[C@H](C=C(Cl)Cl)[C@H]1C(=O)OCc1c(F)c(F)cc(F)c1F [Transfluthrin],–,–,–,–,–,–,–,–,–,–,–,stable
